The test system of test [1] is human leucocyte antigen (HLA) class I molecule. Particulars: disclosed in prior application EP 0346022; cited from earlier work.
Test [2] shares this test system. Description: CTL assay: lysis of 51-chromium labelled, HLA-matched B lymphoblastoid target cells sensitized with peptide. The test is classed as cell-based. As to conditions: for HLA restriction of the peptide (through one or more of the antigens): HLA restrictions not yet fully worked out. As to the method: Peptides in accordance with the invention can also be used for diagnostic purposes. […] Briefly, fresh peripheral blood mononuclear cells (or lymphocytes obtained from biopsy material) are prepared and added at ratios of 50:1, 25:1 and 10:1 to 10^4 51 -chromium labelled B lymphoblastoid cells matched for the relevant HLA molecules. The HLA type of patient is determined in known manner by tissue typing, and B lymphoblastoid cells obtained from a donor of known HLA type (again determined in known manner by tissue typing) and transformed with Epstein Barr using known techniques. A peptide in accordance with the invention, which interacts with the relevant HLA molecule, is also added to the cells in a concentration of 10 to 100 u molar. After 4 hours incubation the supernatant is removed and the released ^51 -chromium measured. The ^51 -chromium released is compared to that released by incubation of labelled cells in detergent, which gives a maximum value, and released by labelled cells incubated in medium alone, which gives a minimum value. If lysis (defined by ^51 -chromium released of at least two times the minimum value) is observed it means that there are cytotoxic T lymphocytes in the patients' mononuclear cells and these are likely to be indicative of infection with HIV.

Read-outs that look alike come from different tables or passages of the source. Where no end group is shown, it is not given here.

“NH2 -lysine-arginine-tryptophan-isoleucine-isoleucine-leucine-glycine-leucine- asparagine-lysine-isoleucine-valine-arginine-methionine-tyrosine -cysteine-COOH [p24-14]”: the “HLA class I molecule with which the peptide interacts specifically” value in test [1] is given as “HLA B27”.
For “VQNANPDCKTILKALY [p24-20, NH2 -valine-glutamine-asparagine-alanine-asparagine-proline-aspartic acid-cysteine-lysine-threonine-isoleucine-leucine-lysine-alanine-leucine-tyrosine-COOH]”, the “HLA class I molecule with which the peptide interacts specifically” value in test [2] was “HLA B8”. Besides, the “recognition of the peptide by a seropositive donor” value in test [2] (seropositive donor, HLA type as printed) is on record as “recognised by a seropositive donor of the HLA type HLA-A3, 29B44, 14”.
For “VHQAISPRTLNAWVKC [p24-2, NH2 -valine-histidine-glutamine-alanine-isoleucine-serine-proline-arginine-threonine-leucine-asparagine-alanine -tryptophan-valine-lysine-cysteine-COOH]”, in test [2], the “HLA restriction of the peptide (through one or more of the antigens)” value (“HLA restriction of the peptide” for short) is “HLA-A23 or A30 or B8”.
With “LEEMMTACQGVGGPGY [p24-22, NH2 -leucine-glutamic acid-glutamic acid-methionine-methionine-threonine-alanine-cysteine-glutamine-glycine -valine-glycine-glycine-proline-glycine-tyrosine-COOH]”, the “HLA restriction of the peptide” value in test [2] was “HLA-A3 or A29 or B44 or B14”.
Take “DLNTMLNTVGGHQAAC [p24-6, NH2 -aspartic acid-leucine-asparagine-threonine-methionine-leucine-asparagine-threonine- valine-glycine-glycine -histidine-glutamine-alanine-alanine-cysteine-COOH]”: the “HLA restriction of the peptide” value in test [2] is on record as “HLA-A3 or A29 or B44 or B14”.
Still for that read-out and setting: the same measure for “CVGGPGHKARVL [p24-23, NH2 -cysteine-valine-glycine-glycine-proline-glycine-histidine-lysine-alanine- arginine-valine-leucine-COOH]”: “LA-A1 or B7 or B8”.

Values taken from US5700469A, “HIV-1 core protein fragments” (Medical Research Council, priority 1990, dated 1997).
